Experimental data from patent US20240246941A1, “SUBSTITUTED 4-(3-AMINOPROP-1-YL)AMINOQUINOLINE ANALOGS AS MODULATORS OF MELANOMA-ASSOCIATED ANTIGEN 11 UBIQUITIN LIGASE” (ST. JUDE CHILDREN'S RESEARCH HOSPITAL, INC., priority 2020, published 2024).

Molecular target: MAGE-A11:PCF11 (Homo sapiens (Human), UniProt P43364)
Experiment: TR-FRET single point screening at 15 μM
Assay type: binding
Set-up: unit not given here
Method in brief: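 Competition TR-FRET: compounds at final 15 μM mixed with 200 nM FAM-PCF11_4, 5 nM GST-MAGEA11 and 5 nM Tb-anti-GST in Tris pH 7.5/MgCl2/BSA/DTT buffer, room temperature, 90 min. Emission ratio 520/490 nm (340 nm excitation) expressed as % inhibition relative to positive and negative controls.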

[1] = single point TR-FRET screening of quinoline compounds against MAGE-A11:PCF11, 15 μM
[2] = single point TR-FRET screening at 15 μM against MAGE-A11:PCF11

Chain of MAGE-A11:PCF11 (P43364 218-429): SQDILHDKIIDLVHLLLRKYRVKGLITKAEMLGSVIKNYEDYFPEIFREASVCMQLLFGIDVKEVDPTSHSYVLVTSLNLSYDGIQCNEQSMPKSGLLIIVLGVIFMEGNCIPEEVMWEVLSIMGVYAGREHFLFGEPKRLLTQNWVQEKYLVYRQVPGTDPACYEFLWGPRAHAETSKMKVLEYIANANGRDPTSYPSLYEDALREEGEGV

| SMILES | TR-FRET signal [1] | TR-FRET signal [2] |
| --- | --- | --- |
| CCCN(CCCNc1ccnc2cc(Cl)ccc12)Cc1ccccc1 [SJ000357431] | 19.14 | – |
| CCCN(CCCNc1ccnc2cc(Cl)ccc12)Cc1ccc(C)s1 [SJ000357433] | 16.51 | – |
| CCCN(CCCNc1ccnc2cc(Cl)ccc12)Cc1ccc(C)o1 [SJ000357437] | 20.15 | – |
| CCCN(CCCNc1ccnc2cc(Cl)ccc12)Cc1sccc1C [SJ000357439] | 19.73 | – |
| Cc1ccsc1CN(CCCNc1ccnc2cc(Cl)ccc12)Cc1ccccc1 [SJ000357440] | 10.9 | – |
| CCCN(CCCNc1ccnc2cc(Cl)ccc12)Cc1ccoc1 [SJ000357442] | 6.214 | – |
| CCCN(CCCNc1ccnc2cc(Cl)ccc12)Cc1ccc[nH]1 [SJ000357445] | 10.34 | – |
| CCCN(CCCNc1ccnc2cc(Cl)ccc12)Cc1cccnc1 [SJ000357446] | 7.809 | – |
| CCCN(CCCNc1ccnc2cc(Cl)ccc12)Cc1ccncc1 [SJ000357449] | 9.295 | – |
| CCCN(CCCNc1ccnc2cc(Cl)ccc12)Cc1nccs1 [SJ000357454] | 11.96 | – |
| CCCN(CCCNc1ccnc2cc(Cl)ccc12)Cc1ccco1 [SJ000357458] | 3.483 | – |
| Clc1ccc2c(NCCCN(Cc3ccccc3)Cc3ccc(Br)s3)ccnc2c1 [SJ000357461] | 27.5 | – |
| COc1ccc(O)c(CN(CCCNc2ccnc3cc(Cl)ccc23)Cc2ccccc2)c1 [SJ000357463] | 14.17 | – |
| COc1cccc(CN(CCCNc2ccnc3cc(Cl)ccc23)Cc2ccccc2)c1O [SJ000357465] | 13.17 | – |
| CC(C)CN(CCCNc1ccnc2cc(Cl)ccc12)Cc1ccccc1 [SJ000357468] | 18.75 | – |
| CC(C)CN(CCCCNc1ccnc2cc(Cl)ccc12)Cc1ccccc1 [SJ000357470] | – | 25.47 |
| Clc1ccc2c(NC3CCN(CC4CC4)CC3)ccnc2c1 [SJ000357481] | – | 3.973 |
| Clc1ccc2c(NCCCN(Cc3ccccc3)CC3CC3)ccnc2c1 [SJ000357483] | 21.06 | – |
| Clc1ccc2c(NCCCCN(Cc3ccccc3)CC3CC3)ccnc2c1 [SJ000357485] | – | 18.34 |
| COc1ccc(F)cc1CN1CCC(Nc2ccnc3cc(Cl)ccc23)CC1 [SJ000357493] | – | 6.153 |
| CCCN(CCCNc1ccnc2cc(Cl)ccc12)Cc1cc(F)ccc1OC [SJ000357494] | 17.08 | – |
| COc1ccc(F)cc1CN(CCCNc1ccnc2cc(Cl)ccc12)Cc1ccccc1 [SJ000357495] | 6.683 | – |

| SMILES | TR-FRET signal [1] | TR-FRET signal [2] |
| --- | --- | --- |
| COc1ccc(F)cc1CN(CCCCNc1ccnc2cc(Cl)ccc12)Cc1ccccc1 [SJ000357496] | – | 20.78 |
| COc1cccc(F)c1CN1CCC(Nc2ccnc3cc(Cl)ccc23)CC1 [SJ000357498] | – | 10.5 |
| CCCN(CCCNc1ccnc2cc(Cl)ccc12)Cc1c(F)cccc1OC [SJ000357499] | 19.4 | – |
| COc1cccc(F)c1CN(CCCNc1ccnc2cc(Cl)ccc12)Cc1ccccc1 [SJ000357500] | −2.857 | – |
| COc1cccc(F)c1CN(CCCCNc1ccnc2cc(Cl)ccc12)Cc1ccccc1 [SJ000357501] | – | 5.094 |
| Oc1c(F)cc(F)cc1CN(CCCNc1ccnc2cc(Cl)ccc12)Cc1ccccc1 [SJ000357504] | 27.64 | – |
| Oc1c(F)cc(F)cc1CN(CCCCNc1ccnc2cc(Cl)ccc12)Cc1ccccc1 [SJ000357506] | – | 30.65 |
| Clc1ccc2c(NC3CCN(Cc4ccc(Br)o4)CC3)ccnc2c1 [SJ000357512] | – | −4.381 |
| Clc1ccc2c(NC3CCN(Cc4ccccc4)CC3)ccnc2c1 [SJ000357524] | – | 6.554 |
| COc1cccc(CN2CCC(Nc3ccnc4cc(Cl)ccc34)CC2)c1O [SJ000357525] | – | 9.995 |
| COc1ccc(O)c(CN2CCC(Nc3ccnc4cc(Cl)ccc34)CC2)c1 [SJ000357527] | – | 7.779 |
| Oc1ccccc1CN1CCC(Nc2ccnc3cc(Cl)ccc23)CC1 [SJ000357529] | – | 22.15 |
| CC(C)(C)CCN(CCCCNc1ccnc2cc(Cl)ccc12)Cc1ccccc1 [SJ000357537] | – | 34.54 |
| CCCCN(CCCCNc1ccnc2cc(Cl)ccc12)Cc1ccccc1 [SJ000357538] | – | 27.64 |
| Clc1ccc2c(NCCCCN(CCOCc3ccccc3)Cc3ccccc3)ccnc2c1 [SJ000357543] | – | −15.92 |
| CCCN(CCCNc1ccnc2cc(Cl)ccc12)CC(C)C [SJ000357568] | 11.45 | – |
| CCCN(CCCNc1ccnc2cc(Cl)ccc12)CCC(C)(C)C [SJ000357570] | 12.11 | – |
| CCCCN(CCC)CCCNc1ccnc2cc(Cl)ccc12 [SJ000357571] | 12.78 | – |
| CCCN(CCCNc1ccnc2cc(Cl)ccc12)CCC(C)c1ccccc1 (stereo not shown) [SJ000357573] | 24.98 | – |
| CCCN(CCCNc1ccnc2cc(Cl)ccc12)CCc1ccccc1 [SJ000357574] | 4.884 | – |
| CCCN(CCCNc1ccnc2cc(Cl)ccc12)CCCSC [SJ000357576] | 7.824 | – |
| CCCN(CCCNc1ccnc2cc(Cl)ccc12)CCOCc1ccccc1 [SJ000357577] | −13.18 | – |

| SMILES | TR-FRET signal [1] | TR-FRET signal [2] |
| --- | --- | --- |
| CC(C)(C)CCN(CCCNc1ccnc2cc(Cl)ccc12)Cc1ccccc1 [SJ000357578] | 25.69 | – |
| CCCCN(CCCNc1ccnc2cc(Cl)ccc12)Cc1ccccc1 [SJ000357579] | 19.31 | – |
| Clc1ccc2c(NCCCN(CCc3ccccc3)Cc3ccccc3)ccnc2c1 [SJ000357580] | 14.41 | – |
| Clc1ccc2c(NCCCN(CCOCc3ccccc3)Cc3ccccc3)ccnc2c1 [SJ000357583] | 13.24 | – |
| CCCN(CCCNc1ccnc2cc(Cl)ccc12)Cc1cccc2c1OCO2 [SJ000357594] | 18.14 | – |
| CCCN(CCCNc1ccnc2cc(Cl)ccc12)Cc1ccccc1OC(F)(F)F [SJ000357595] | −21.87 | – |
| CCCN(CCCNc1ccnc2cc(Cl)ccc12)Cc1cc(F)cc(F)c1O [SJ000357597] | 15.96 | – |
| Clc1ccc2c(NCCCN(Cc3ccccc3)Cc3cccc4c3OCO4)ccnc2c1 [SJ000357598] | 3.49 | – |
| FC(F)(F)Oc1ccccc1CN(CCCNc1ccnc2cc(Cl)ccc12)Cc1ccccc1 [SJ000357599] | 19.76 | – |
| COc1ccc2nc3cc(Cl)ccc3c(NCCCNCc3ccc[nH]3)c2c1 [SJ000361084] | 0.9854 | – |
| COc1ccc2nc3cc(Cl)ccc3c(NCCCNCc3ccc4c(c3)OCO4)c2c1 [SJ000361085] | – | −363.3 |
| COc1ccc2nc3cc(Cl)ccc3c(NCCCNCc3ccccc3)c2c1 [SJ000361086] | – | −432.4 |
| COc1ccc2nc3cc(Cl)ccc3c(NCCCNCC3CC3)c2c1 [SJ000361087] | – | −502.4 |
| COc1ccc2nc3cc(Cl)ccc3c(NCCCNCc3cccs3)c2c1 [SJ000361088] | – | −453.5 |
| COc1ccc2nc3cc(Cl)ccc3c(NCCCNCc3ccc(C)o3)c2c1 [SJ000361089] | – | −229 |
| COc1ccc2nc3cc(Cl)ccc3c(NCCCNCC3CCCCC3)c2c1 [SJ000361090] | – | −411.2 |
| COc1ccc2nc3cc(Cl)ccc3c(NCCCNCc3cc(F)ccc3F)c2c1 [SJ000361091] | – | −327.2 |
| CCC(CC)CNCCCNc1c2ccc(Cl)cc2nc2ccc(OC)cc12 [SJ000361092] | – | −427.4 |
| CCC(C)CNCCCNc1c2ccc(Cl)cc2nc2ccc(OC)cc12 (stereo not shown) [SJ000361093] | – | −451.5 |
| COc1ccc2nc3cc(Cl)ccc3c(NCCCNCc3sccc3C)c2c1 [SJ000361094] | – | −321.3 |
| COc1ccc2nc3cc(Cl)ccc3c(NCCCNCc3ccccc3C(F)(F)F)c2c1 [SJ000361095] | – | −169.5 |
| CCCNCCCNc1c2ccc(Cl)cc2nc2ccc(OC)cc12 [SJ000361096] | – | −498.5 |

| SMILES | TR-FRET signal [1] | TR-FRET signal [2] |
| --- | --- | --- |
| CCCCCCNCCCNc1c2ccc(Cl)cc2nc2ccc(OC)cc12 [SJ000361097] | – | −281.7 |
| COc1ccc2nc3cc(Cl)ccc3c(NCCCNCCC(C)SC)c2c1 (stereo not shown) [SJ000361098] | – | −514.5 |
| COc1ccc2nc3cc(Cl)ccc3c(NCCCNCc3c4ccccc4cc4ccccc34)c2c1 [SJ000361099] | −3.728 | – |
| Clc1ccc2c(NCCCNCC3CC3)ccnc2c1 [SJ000361101] | 11.47 | – |
| Clc1ccc2c(NCCCNCC3CCCCC3)ccnc2c1 [SJ000361102] | 15.63 | – |
| CCC(CC)CNCCCNc1ccnc2cc(Cl)ccc12 [SJ000361103] | 16.55 | – |
| CCC(C)CNCCCNc1ccnc2cc(Cl)ccc12 (stereo not shown) [SJ000361104] | 9.822 | – |
| FC(F)(F)c1ccc2c(NCCCNCc3ccc[nH]3)ccnc2c1 [SJ000361105] | 41.69 | – |
| FC(F)(F)c1ccc2c(NCCCNCC3CC3)ccnc2c1 [SJ000361108] | 22.81 | – |
| Cc1ccc(CNCCCNc2ccnc3cc(C(F)(F)F)ccc23)o1 [SJ000361109] | 14.45 | – |
| FC(F)(F)c1ccc2c(NCCCNCC3CCCCC3)ccnc2c1 [SJ000361110] | 27.12 | – |
| CCC(CC)CNCCCNc1ccnc2cc(C(F)(F)F)ccc12 [SJ000361111] | 24.33 | – |
| CCC(C)CNCCCNc1ccnc2cc(C(F)(F)F)ccc12 (stereo not shown) [SJ000361112] | 18.47 | – |
| FC(F)(F)c1ccc2c(NCCCNCc3ccco3)ccnc2c1 [SJ000361113] | 18.05 | – |
| CCCNCCCNc1ccnc2cc(Cl)ccc12 [SJ000361119] | 9.785 | – |
| CCCCCCNCCCNc1ccnc2cc(Cl)ccc12 [SJ000361120] | 22.25 | – |
| CSC(C)CCNCCCNc1ccnc2cc(Cl)ccc12 (stereo not shown) [SJ000361121] | 13.5 | – |
| CCCNCCCNc1ccnc2cc(C(F)(F)F)ccc12 [SJ000361123] | 12.82 | – |
| CCCCCCNCCCNc1ccnc2cc(C(F)(F)F)ccc12 [SJ000361124] | 31.61 | – |
